According to publication PMC12009420, “Dynamically chiral phosphonic acid-type metallo-β-lactamase inhibitors” (Communications Chemistry, 2025):
Read-outs that look alike come from different tables or passages of the source.

Legend:
[1] = MTT cytotoxicity assay; format: cell-based; details: human, HepG2 cells
Experimental: Cytotoxic activity of the compounds was measured through the MTT colorimetric assay as previously described[60] using the Colorimetric (MTT) Kit for Cell Survival and Proliferation (Merck/Millipore; Darmstadt, Germany). HepG2 cells (human hepatocellular carcinoma cell line) were kept in penicillin/streptomycin-free medium overnight and then they were treated with the compounds for 24 h. Subsequently, the MTT reagent was added to the cells and after 3 h of incubation, MTT-derived formazan crystals were solubilized in acidified isopropanol (0.1 mL isopropanol with 0.04 N HCl). Absorbance was measured with multiscan spectrophotometer (Thermo Fisher Scientific) at 530 nm test and 630 nm reference wavelengths. Cell viability was expressed as the percentage of viable, untreated cells. CC50 values were determined with GraphPad Prism software (v9.3.1) and adjusted to dose-response curves by non-linear regression (Supplementary Table S7).
8. Cytotoxocity against HepG2 cells
Table S7. CC50 values and viability curves of metallo-β-lactamase inhibitors tested on HepG2 […]
cells. […]
range. Data are shown as % via bility values ± SEM (n=4). Calculations were done using […]
Inhibitors CC50 (μM) HepG2 […]

[2] = molecular target: T1, 15N-labelled VIM-2 (Escherichia coli, UniProt Q5U7L7); assay: 1H,15N-HSQC titration of VIM-2; format: binding; details: 10 equivalents of compound, 600 MHz, pH 7.0, 25 °C
T1 construct: made in house
Experimental: The ^1H, ^15N-HSQC spectra for the titration experiments were recorded on a Bruker Avance Neo 600 MHz spectrometer equipped with a 5 mm TCI cryogenic probe at 25 °C. The U-[^15N]-labeled VIM-2 was prepared in a buffer of 20 mM KPO4, 0.1 mM ZnCl2, at pH 7.0, containing 85% H2O/15% D2O at a concentration of 0.25 mM. The U-[^15N]-labeled NDM-1 was used in a buffer of 20 mM HEPES, 0.1 mM ZnCl2, at pH 7.0, containing 85% H2O/15% D2O at a concentration of 0.25 mM. The ligands 5d, 5g, 5i, 5j (for VIM-2 titrations) and 5 f (for NDM-1 titration) were dissolved in the same buffer as the corresponding enzymes. Spectra were recorded using solvent suppression, 1024 points in f1, 16 transients, 512 increments in f2 and a relaxation delay of 0.2 s. The titrations were carried out with 0, 0.25, 0.50, 1.00, 1.50, 2.25, 3.00, 4.00, 5.00, 7.00, 10.0 equivalents of the inhibitors.
Figure S47. Superimposition of the 1H,15N-HSQC spectrum (600 MHz, pH 7.0, 25 °C) of
VIM-2 in the absence (blue) and in the presence (green) of 10 molar equivalent of compound
5j. Buffer: 20 mM KPO4, 0.1 mM ZnCl2, with 15% D2O.
Chemical shift perturbation values (CSP, ΔδNH) were calculated as the weighted average of
the chemical shift changes in f1 (ΔδN) and f2 (ΔδH) dimensions using the following equation 8:
∆δ = √∆δ 2 + ( N ); R = 6.5
Figure S48. Linear regression of the chemical shift perturbations of compound 5g (IC50 =
12 μM) as a function of the chemical shift perturbations of compounds 5c (yellow circle), 5d
(grey square), 5i (green triangle) and 5j (blue circle) for VIM-2. The data of the studied […]

## O=C(NC(c1ccccc1O)P(=O)(O)O)c1scc2c1CCCC2 (stereo not drawn) [5g]
[1]; HepG2, MTT, read-out: CC50 (in viability curve)
  CC50 at 24 h: 1400 µM
[1]; MTT, 0.0025 mM - 1mM concentration range, read-out: Cytotoxicity CC50 HepG2
  CC50 at 24 h: 1420 µM
[2]
  Mean chemical shift perturbation, VIM-2: 0.04 ppm
